The values below come from ChEMBL document CHEMBL1828577, “Design and synthesis of some new thiophene, thienopyrimidine and thienothiadiazine derivatives of antipyrine as potential antimicrobial agents” (2011).

The subject of one assay is Bacillus subtilis. The assay is described as follows: Antibacterial activity against Bacillus subtilis RCMB 000107 at 30 mg/ml after 24 hrs by agar well diffusion method. It is filed as functional. To be noted: RCMB 000107, 24 h, read-out: DIZ.
In a further assay the test system is Staphylococcus aureus. As to the kind of experiment: Antibacterial activity against Staphylococcus aureus RCMB 000106 at 30 mg/ml after 24 hrs by agar well diffusion method. The class given is functional. To be noted: RCMB 000106, 24 h, read-out: DIZ.

Consider `CC1(C)S[C@@H]2[C@H](NC(=O)Cc3ccccc3)C(=O)N2[C@H]1C(=O)O` [PENICILLIN G], for which the zone of inhibition at 30000 µg/mL stood at 32.5 mm in the assay with Bacillus subtilis and 29.4 mm with Staphylococcus aureus.
The matching figures for `CN[C@@H]1[C@H](O[C@H]2[C@H](O[C@H]3[C@H](O)[C@@H](O)[C@H](N=C(N)N)[C@@H](O)[C@@H]3N=C(N)N)O[C@@H](C)[C@]2(O)C=O)O[C@@H](CO)[C@H](O)[C@H]1O` [STREPTOMYCIN]: 29 mm and 25 mm.
